Test results reported in publication PMC9021288 (Nature Communications, 2022).
Where “and” joins values, the source holds several entries; their conditions need not be identical. Equal entries are not always repeated.

Key:
[1] = system: cryopreserved human primary hepatocytes; test: in vitro; conditions: for Human hepatocyte CLint: hepatocytes; for % Remaining: 10 µM, single replicates
From the text: Briefly, cryopreserved human primary hepatocytes were thawed and cultured as described above.

[2] = Blood concentration and PK in infected NSG mice after single oral dose; assay type: in vivo, mouse; conditions: for AUC0-24h / Cmax / T1/2 / Tmax: 50 mg/kg p.o.; for concentration in blood: per mouse
Protocol: The effect of pantothenamides on P. falciparum Pf3D7^0087/N9 [66] in vivo was assessed in female NSG mice (NODscidIL2Rγ^null) at the Swiss Tropical and Public Health Institute (Basel, Switzerland) as described previously (Supplementary Table 30)[15],[67]. Briefly, humanized mice were engrafted daily with human erythrocyte suspensions from days -11 to day 6. After 11 days (day 0), mice were injected intravenously with 3×10^7 infected RBCs in a volume of 0.1 ml. On day 4, groups of n = 2 mice were treated with a single dose pantothenamides or chloroquine (50 mg/kg) by oral gavage. The hematocrit of all dosed mice and an untreated control group (n = 4 mice) was determined by fluorescence-activated cell sorting and parasitemia was analyzed by microscopy on >10,000 RBCs as described before. Samples to quantify compound metabolites were collected and prepared at different time points (1, 2, 4, 6, and 24 h after treatment) for each mouse by mixing 20 µl of whole blood with 20 µl of Milli-Q, followed by immediate freezing of samples on dry ice. […] Serial dilutions were prepared in the same solvent to concentrations 50 times higher than the corresponding CAL and QC concentrations. The concentrations were calculated under consideration of purity and salt factor. The spiking of the CAL and QC sample were performed at room temperature. The eight calibration levels were 5.00, 10.0, 50.0, 100, 500, 1000, 3750, and 5000 ng/mL and three QC levels 15.0, 100, and 3750 ng/mL were analyzed in duplicate, together with the study samples.
For the sample precipitation, to an aliquot of 10 µL mouse blood/water (1/1) study sample, 20 µL of acetonitrile containing the internal standard MMV1542001 at a concentration of 100 ng/mL was added. After vortex mixing, the samples were centrifuged for 10 min at 50,000 g at 8 °C. Subsequently, an aliquot of 20 µL of the supernatant was transferred to an autosampler vial and an aliquot of 5 µL was injected onto the LC-MS/MS system.
The samples were handled by an autosampler CTC PAL (CTC Analytics AG, Zwingen, Switzerland) set at 8 °C. The chromatography column used was a YMC Hydrosphere C18, 2.1 × 33 mm, 3 µm (YMC Co. Ltd., Kyoto, Japan), kept at room temperature. The aqueous mobile phase consisted of water containing 0.1 % formic acid, whereas the organic mobile phase consisted of acetonitrile containing 0.1 % formic acid, pumped by HPLC pump from Agilent 1200 series (Agilent Technologies Inc, Santa Clara, CA, USA). The HPLC gradient was as follows: 95% phase A, 5% phase B for 0.20 min, followed by transition to 5% phase A, 95% phase B in 1 min, 2 min at these concentrations, and a subsequent increase to 95% phase A, 5% phase B in 0.05 min which is kept for the remaining 0.75 min.
The detection of MMV693183 was performed using a TSQ Access mass spectrometer (Thermo Fisher Scientific, San Jose, CA, USA) by selected reaction monitoring. The ion source was heated electrospray ionization, using a negative polarity. Following parameters were used: Voltage 2500 [V], Vaporizer temperature 350 [°C], Sheath gas 60 [au], Auxiliary gas 5 [au], Capillary temperature 350 [°C] and Collision gas pressure 1.0 [mTorr]. […] The transition used for the internal standard was: parent ion 325.030 m/z—daughter ion 195.000 m/z.
The concentration of the analyte was calculated using the internal standardization method. The area ratio of analyte to internal standard against the concentration of calibration samples was used for quantification. The acquisition and processing of data were performed using LCquan 2.5.6 and Xcalibur 2.0.7. Microsoft Office Excel 2007 Prof was used for calculations and statistical evaluation of data. […] The Lower Limit of Quantification was 5.00 ng/mL in […], whereas The Upper Limit of Quantification was 5000 ng/mL in mouse blood/water (1/1).

[3] = Crystal screening (XRPD); assay type: physicochemical; conditions: 36 conditions
Protocol: Crystal screening for each further characterized pantothenamide was performed by a commercial service (Crystal Pharmatech Co., Ltd.) under 36 conditions using a variety of crystallization methods, including liquid vapor diffusion, slow evaporation, slurry conversion and salt/co-crystal formation and solvents. X-ray power diffraction (XRPD) patterns were collected by Bruker X-ray powder diffractometers.

[4] = system: P. falciparum Pf3D7^0087/N9; test: Single dose in vivo efficacy in humanized NSG mice; set-up: species or system Plasmodium falciparum; conditions: for parasitemia outcome: single 50 mg/kg oral gavage on day 4, over three days
Protocol: The effect of pantothenamides on P. falciparum Pf3D7^0087/N9 [66] in vivo was assessed in female NSG mice (NODscidIL2Rγ^null) at the Swiss Tropical and Public Health Institute (Basel, Switzerland) as described previously (Supplementary Table 30)[15],[67]. Briefly, humanized mice were engrafted daily with human erythrocyte suspensions from days -11 to day 6. […] On day 4, groups of n = 2 mice were treated with a single dose pantothenamides or chloroquine (50 mg/kg) by oral gavage. […] Serial dilutions were prepared in the same solvent to concentrations 50 times higher than the corresponding CAL and QC concentrations. The concentrations were calculated under consideration of purity and salt factor. The spiking of the CAL and QC sample were performed at room temperature.

[5] = day 5 post infection, 50 mg/kg p.o. on day 4, per mouse, 50 mg/kg
[6] = day 6 post infection, per mouse
[7] = day 7 post infection, per mouse

CC(C)(CO)[C@@H](O)C(=O)NCCNC(=O)c1cc(C#N)ccc1F [MMV976394]
Human hepatocyte CLint [1]: 0.2 µl/min/10^6 cells | AUC0-24h [2]: 10800 ng·h/mL | Cmax [2]: 5810 ng/mL | T1/2 [2]: 2.95 h | Tmax [2]: 1.00 h | concentration in blood ([2]; 1 h post treatment): 6840 ng/mL and 4780 ng/mL | concentration in blood ([2]; 2 h post treatment): 1230 ng/mL and 1500 ng/mL | concentration in blood ([2]; 4 h post treatment): 450 ng/mL and 356 ng/mL | concentration in blood ([2]; 6 h post treatment): 204 ng/mL and 214 ng/mL | concentration in blood ([2]; 24 h post treatment): 10 ng/mL | Crystalline [3]: No | Parasitemia [4, 5]: 0.56 and 0.41 | Parasitemia [4, 6]: 0.32 | Parasitemia [4, 7]: 0.17 | parasitemia outcome [4]: not fully cleared

C[C@@H](CNC(=O)[C@H](O)C(C)(C)CO)NC(=O)c1cc(F)c(F)cc1F [MMV693183]
% Remaining ([1]; hepatocyte donor HC02, 0 h): 100.0% | % Remaining ([1]; hepatocyte donor HC02, 6 h): 77.4% and 91.4% | % Remaining ([1]; hepatocyte donor HC02, 24 h): 90.3% and 124.4% | % Remaining ([1]; hepatocyte donor HC02, 48 h): 87.4% and 110.8% | % Remaining ([1]; hepatocyte donor HC02, 72 h): 63.9% and 86.8% | % Remaining ([1]; hepatocyte donor HC06, 0 h): 100.0% | % Remaining ([1]; hepatocyte donor HC06, 3 h): 77.2% and 88.0% | % Remaining ([1]; hepatocyte donor HC06, 6 h): 79.3% and 91.3% | % Remaining ([1]; hepatocyte donor HC06, 24 h): 87.0% and 115.0% | % Remaining ([1]; hepatocyte donor HC06, 48 h): 64.3% and 81.2% | % Remaining ([1]; hepatocyte donor HC06, 72 h): 61.0% and 75.3% | % Remaining ([1]; hepatocyte donor HC425, 0 h): 100.0% | % Remaining ([1]; hepatocyte donor HC425, 6 h): 79.3% and 88.2% | % Remaining ([1]; hepatocyte donor HC425, 24 h): 68.0% and 93.2% | % Remaining ([1]; hepatocyte donor HC425, 48 h): 73.6% and 94.3% | % Remaining ([1]; hepatocyte donor HC425, 72 h): 68.2% and 91.6% | % Remaining ([1]; hepatocyte donor HC1010, 0 h): 100.0% | % Remaining ([1]; hepatocyte donor HC1010, 1 h): 120.3% and 86.1% and 104.1% and 69.6% | % Remaining ([1]; hepatocyte donor HC1010, 6 h): 88.7% and 55.7% and 88.0% and 45.9% | % Remaining ([1]; hepatocyte donor HC1010, 24 h): 90.4% and 62.9% and 77.2% and 55.3% | % Remaining ([1]; hepatocyte donor HC1010, 48 h): 70.7% and 54.4% and 57.7% and 44.1% | % Remaining ([1]; hepatocyte donor HC1010, 72 h): 34.1% and 43.9% and 31.3% and 51.9% | CLint ([1]; donor HC02): 0.082 µL/min/million cells | CLint ([1]; donor HC06): 0.142 µL/min/million cells | CLint ([1]; donor HC425): 0.0695 µL/min/million cells | Human hepatocyte CLint [1]: 0.4 µl/min/10^6 cells | human hepatocyte clearance, four donors ([1]; range of donors): 0.07 to 0.4 µl/min/10^6 cells | AUC0-24h [2]: 33700 ng·h/mL | Cmax [2]: 12900 ng/mL | T1/2 [2]: 2.49 h | Tmax [2]: 1.50 h | concentration in blood ([2]; 1 h post treatment): 6960 ng/mL and 16200 ng/mL | concentration in blood ([2]; 2 h post treatment): 9660 ng/mL and 7300 ng/mL | concentration in blood ([2]; 4 h post treatment): 2360 ng/mL and 1170 ng/mL | concentration in blood ([2]; 6 h post treatment): 802 ng/mL and 376 ng/mL | concentration in blood ([2]; 24 h post treatment): 10 ng/mL | Crystalline [3]: Yes | Parasitemia [4, 5]: 0.2 and 0.29 | Parasitemia [4, 6]: 0.03 and 0.02 | Parasitemia [4, 7]: 0 | parasitemia outcome [4]: reduced parasitemias below detectable levels

C[C@@H](CNC(=O)[C@H](O)C(C)(C)CO)NC(=O)c1cccc(F)c1 (stereo in doubt) [MMV1542001]
Human hepatocyte CLint [1]: 0.5 µl/min/10^6 cells | AUC0-24h [2]: 11800 ng·h/mL | Cmax [2]: 5150 ng/mL | T1/2 [2]: 2.80 h | Tmax [2]: 1.00 h | concentration in blood ([2]; 1 h post treatment): 4480 ng/mL and 5820 ng/mL | concentration in blood ([2]; 2 h post treatment): 1520 ng/mL and 1620 ng/mL | concentration in blood ([2]; 4 h post treatment): 492 ng/mL and 574 ng/mL | concentration in blood ([2]; 6 h post treatment): 314 ng/mL and 340 ng/mL | concentration in blood ([2]; 24 h post treatment): 10 ng/mL | Crystalline [3]: No | Parasitemia [4, 5]: 0.4 and 0.31 | Parasitemia [4, 6]: 0.06 and 0.01 | Parasitemia [4, 7]: 0 | parasitemia outcome [4]: reduced parasitemias below detectable levels
